Reference: article PMC6327263, “Evaluation of Novel 3-Hydroxyflavone Analogues as HDAC Inhibitors against Colorectal Cancer” (Advances in Pharmacological Sciences, 2018)
Values joined by “and” are separate entries in the source; they are usually repeats but may differ in a detail not shown here. Identical values can stand only once. Marks after values point to notes of the source that are not given here.

Key:
[1] = test system: DMH-induced colon cancer; format: in vivo, Wistar rats; conditions: 5-FU 10 mg/kg i.p.
Method: The two test compounds (QMJ-2 and QMJ-5) and quercetin were suspended in 0.25% w/v sodium carboxymethyl cellulose (CMC) and were administered orally (p.o.). 5-Fluorouracil (5-FU) which was used as a standard was procured in the form of injection and was administered intraperitonially (i.p.).
Colon cancer in experimental animals was induced using the highly specific carcinogen DMH, with few modifications from the previously described procedure. DMH was administered at a dose of 30 mg/kg i.p. once a week for 20 weeks. The incidence of aberrant crypt foci (ACF) and adenocarcinoma were confirmed by sacrificing few animals after 20 weeks of induction with DMH. Furthermore, the animals were randomized into five experimental groups, and various treatments were administered for a period of 21 days followed by the assessment of different parameters in the experimental animals.
(1) Experimental Groups • Group 1: animals received 0.25% CMC in water p.o. • Group 2: animals received 0.25% CMC in water p.o. (DMH control) • Group 3: animals received 5-FU at 10 mg/kg i.p. • Group 4: animals received quercetin at 100 mg/kg p.o. • Group 5: animals received QMJ-2 at 100 mg/kg p.o. • Group 6: animals received QMJ-5 at 100 mg/kg p.o.
(2) ACF Formation and Adenocarcinoma Incidence. The entire colon was excised from the experimental animals and was used to study the incidence of adenocarcinoma. The count and size were noted from each animal. For ACF formation, the distal part of the colon was excised, and the tissue was then cut open and fixed with 10% buffered formalin for 12 h. Following this, the tissue was stained with 0.1% methylene blue in PBS for 5 min. The tissues were then observed under microscope for ACF formation and were calculated as the number of counts/5 cm^2 in colon tissue.
(3) Colon Weight/Length Ratio and Organ Index. Length of the excised colon was measured in centimeters, and weight was measured in g. Colon weight/length ratio was then calculated. For the determination of organ index, major organs including spleen, liver, and kidney of the experimental animals were weighed in g and the respective index was calculated. […]

[2] = test system: HDAC enzyme in HCT116 cells; test: Whole cell HDAC inhibition assay; format: cell-based; conditions: Homo sapiens, HCT-116, HCT116, 18 h treatment, mean ± SEM of three experiments
Method: Confluent HCT116 cells were harvested and seeded in 96 well sterile black well plates at a density of 2000 cells per well and incubated overnight. Furthermore, the cells were treated with different concentrations of test compounds for a period of 18 h followed by the addition of […] BOC-Ac-Lys-AMC substrate and incubated for 1 h. […] The reaction was then allowed to proceed for 15 min at 37°C. Finally, the fluorescence intensity was measured at 360 nm excitation and 460 nm emission using a fluorescence microplate reader (FLx800, BioTek Instruments Inc., Winooski, VT, USA).

[3] = test system: HCT116 cells; test: MTT cytotoxicity assay, HCT116; format: cell-based, human; conditions: Homo sapiens, HCT-116, 48 h, mean ± SEM of three experiments
Method: (§1) Human colorectal carcinoma cell line (HCT116) and African green monkey kidney epithelial cells (VERO) were obtained from National Centre for Cell Science, Pune, MH, India. For their maintenance, the cells were grown in Dulbecco's Modified Eagle's Medium (DMEM) which was supplemented with 10% fetal bovine serum (FBS) and 1 × penicillin/streptomycin at 37°C in CO2 incubator (NU-5501E/G, NuAire Inc., Plymouth, MN, USA) in a humidified atmosphere of 5% CO2 and 95% air.
(§2) Cytotoxicity for the synthesized analogues was determined using MTT assay. In brief, HCT116 and VERO cells were harvested from the tissue culture flask and seeded in sterile 96 well plates at a density of 5000 cells per well. After overnight adherence, different concentrations of test compounds were added and incubated for 48 h. Next, 50 µl of the MTT reagent (HiMedia Laboratories, Mumbai, India) (2 mg/ml in the sterile phosphate buffer saline (PBS)) was added into each well and incubated for 3 h. The formazan crystals formed were solubilized using 100% dimethyl sulfoxide (DMSO), and the optical density was measured at 540 nm using the microplate reader (ELx800, BioTek Instruments Inc., Winooski, VT, USA).

[4] = test system: VERO cells; test: MTT cytotoxicity assay, Vero; format: cell-based, African green monkey; conditions: Chlorocebus sabaeus, 48 h, mean ± SEM of three experiments
Method: as §1, §2

[5] = test system: HCT116 cells; test: Annexin V staining; format: cell-based, human; conditions: SAHA 5 µM, quercetin 100 µM, QMJ-2 100 µM, QMJ-5 50 µM, normal control 21.30%
Method: Mechanism of cell death induced by synthesized analogues was determined using annexin V staining. In brief, as per annexin V flow cytometry kit protocol (#MCH100105), 1 × 10^6 cells were seeded in a cell culture dish and after overnight adherence, were incubated with test compounds. Cells were then detached by trypsinization, centrifuged, and washed with PBS. Cell suspension (100 µl) was mixed with Muse annexin V reagent (100 µl) and incubated for 20 min at room temperature. The stained cells were quantitatively analyzed for live, early, and late apoptosis using Muse cell analyzer (#0500-3115 Merck Millipore).

[6] = test system: HDAC8; test: Western blotting, HDAC8 expression; format: cell-based, human; conditions: HCT116 cells, 24 h, compared to normal control
Method: (§3) After various treatments for 24 h, cells were lysed, and protein quantification of the lysates was estimated using the BCA™ kit (Thermo Fisher Scientific Inc., Waltham, MA, USA). Proteins samples (30 µg) were resolved on a 10% SDS-PAGE and transferred onto a PVDF membrane and blocked with 5% nonfat milk in TBST (tris-buffered saline with Tween-20) buffer for 1 h followed by washing in TBST buffer. The membrane was then probed with primary antibodies (GAPDH, HDAC8, p21^Waf1/Cip1, and acetyl-histone H3[Ac-Lys^9]) and incubated overnight at 4°C. The membrane was washed with TBST buffer and incubated with horseradish peroxidase-conjugated secondary antibody for 1 h at room temperature. Signal was captured using SuperSignal™ West Pico Plus chemiluminescent substrate (Thermo Fischer Scientific Inc., Waltham, MA, USA) on gel documentation system (G : BOX Chemi XRQ, Syngene).

[7] = test system: caspase 3/7 in HCT116 cells; test: Caspase 3/7 activation assay; format: cell-based, human; conditions: SAHA 5 µM, quercetin 100 µM, QMJ-2 100 µM, QMJ-5 50 µM, normal control 24.60%
Method: The downstream signaling pathway of apoptosis was determined using the caspase 3/7 activation assay. In brief, as per the caspase 3/7 activation kit protocol (#MCH100108), 1 × 10^6 cells were seeded in the cell culture dish and after overnight adherence, were incubated with the test compounds. The cells were detached by trypsinization, centrifuged, and washed with PBS. Cell suspension (50 µl) was mixed with the caspase 3/7 antibody reagent (5 µl) and incubated at 37°C temperature for 30 min. 7-AAD (7-amino-actinomycin D) working solution (150 µl) was added, and stained cells were then analyzed in Muse Cell Analyzer (#0500-3115 Merck Millipore).

[8] = test system: acetyl histone H3K9; test: Western blotting, acetyl histone H3K9 expression; format: cell-based, human; conditions: HCT116 cells, 24 h, compared to normal control
Method: as §3, with “Syngene). The protein band densities were estimated using the software ImageJ (version 1.46r, NIH, Bethesda, MD, USA).” for “Syngene).”

[9] = test system: p21^Waf1/Cip1; test: Western blotting, p21Waf1/Cip1 expression; format: cell-based, human; conditions: HCT116 cells, 24 h, compared to normal control
Method: as §3

[10] = test system: HCT116 cells; test: Cell cycle analysis; format: cell-based, human; conditions: HCT116, 48 h; SAHA 5 µM, quercetin 100 µM, QMJ-2 100 µM, QMJ-5 50 µM; normal control 29.2%
Method: Cell cycle analysis was performed to estimate the effect of synthesized analogues on the different phases of the cell cycle. In brief, 1 × 10^6 cells were seeded in the cell culture dish and allowed to attach overnight followed by incubation with test compounds. After 48 h, the cells were detached by trypsinization, centrifuged, and washed with PBS. The cell pellets were fixed in 70% v/v ice cold ethanol and stored at −20°C for 24 h. After fixing, the pellets were dislodged in PBS and stained with propidium iodide solution and analyzed using Accuri C6 flow cytometer (BD Biosciences, San Jose, CA, USA).

Structure (SMILES)	IC50 [2]	IC50 [3]	IC50 [4]	further results
O=c1[nH]cc(F)c(=O)[nH]1 [5-FU, 5-Fluorouracil, reference compound]				ACF/5 cm^2 ([1]; 21 days treatment, quercetin, QMJ-2, QMJ-5 100 mg/kg p.o., DMH control 25 ± 2.1, mean ± SEM of six animals): 10 ± 1.3 /5 cm^2 and 10 ± 1.3^a /5 cm^2; colon weight/length ratio ([1]; compared with DMH control, others 100 mg/kg p.o., 21 days): significantly (p < 0.05) reduced; Adenocarcinoma ([1]; count in colon, 21 days treatment, quercetin, QMJ-2, QMJ-5 100 mg/kg p.o., DMH control 17 ± 1.7, mean ± SEM of six animals): 8 ± 1.1^a
O=C(CCCCCCC(=O)Nc1ccccc1)NO [SAHA, reference compound]				percentage of cells undergoing late apoptosis (Late Apop./Dead, annexin V) [5]: 27.65%; HDAC8 expression [6]: significant reduction; percentage of apoptotic cells (Apoptotic/Dead, caspase 3/7) [7]: 56.30%; expression of acetylated histone H3K9 [8]: significant increase; expression of p21^Waf1/Cip1 [9]: increased; percentage of cells in G2/M phase [10]: 37.5%

Further lines, with some results ahead:

IC50 [2]	Structure (SMILES)	IC50 [3]	IC50 [4]	further results
1023 ± 5.2 µM	CN(C)c1ccc(-c2oc3ccccc3c(=O)c2O)cc1 [QMJ-1, 2-[4(Dimethylamino)phenyl]-3-hydroxy-4H-1-benzopyran-4-one]	102 ± 1.8 µM	186 ± 4.9 µM	
1124 ± 6.2 µM	Cc1ccc2oc(-c3ccc(N(C)C)cc3)c(O)c(=O)c2c1 [QMJ-3, 2-[4-(Dimethylamino)phenyl]-3-hydroxy-6-methyl-4H-1-benzopyran-4-one]	70.3 ± 4.1 µM	80.1 ± 3.7 µM	
1011 ± 3.4 µM	Cc1ccc(-c2oc3ccc(C)cc3c(=O)c2O)cc1 [QMJ-4, 3-Hydroxy-6-methyl-2-(4-methylphenyl)-4H-1-benzopyran-4-one]	> 400 µM	> 400 µM	
984.2 ± 2.5 µM	COc1ccc2c(=O)c(O)c(-c3ccc(C)cc3)oc2c1 [QMJ-6, 3-Hydroxy-7-methoxy-2-(4-methylphenyl)-4H-1-benzopyran-4-one]	94 ± 2.1 µM	153 ± 2.3 µM	
